For test [1], the species on record is Homo sapiens. In words: Compound was tested for its ability to inhibit ADP-induced human platelet aggregation. It is filed as functional.
The species named for test [2] is Homo sapiens. In words: Potency to inhibit ADP-induced human platelet aggregation was determined relative to compound 1(5-Methyl-3-morpholin-4-yl-6-(2-naphthalene-1-one). The test is classed as functional.
Test [3] has as its system Canis familiaris. In words: Effect on heart rate was determined at an iv dose of 3 ug/kg/60 min in canine model. The test is classed as functional, Canis lupus familiaris.
In test [4] the test system is Canis familiaris. In words: Effect on Cyclical Flow Reductions induced by intracoronary platelet aggregation in stenosed canine coronary arteries at an iv dose of 10 ug/kg plus a constant infusion of 1 ug/kg/min in canine model. The test is classed as functional, Canis lupus familiaris.
Test [5] deals with Canis familiaris. In words: Effect on mean arterial pressure was determined at an iv dose of 30 ug/kg plus a constant infusion of 3 ug/kg/min in canine model. It is filed as functional, Canis lupus familiaris, Artery.
The subject of test [6] is Canis familiaris. In words: Time interval between start of drug treatment and first change in CFR pattern of blood flow at an iv dose of 100 ug/kg plus a constant infusion of 10 ug/kg/min. The test is classed as functional, Canis lupus familiaris.
The test system of test [7] is Canis familiaris. Description: Time interval between end of drug treatment and restoration of CFR pattern of blood flow at an iv dose of 10 ug/kg plus a constant infusion of 1 ug/kg/min in canine model. It is filed as functional, Canis lupus familiaris.
Test [8] is filed under the species Homo sapiens. Description: Effect on aggregation of thrombin-stimulated washed human platelets at a concentration of 1 uM. It is filed as functional.
Test [9] concerns Canis familiaris. Description: Time interval between end of drug treatment and restoration of CFR pattern of blood flow at an iv dose of 30 ug/kg plus a constant infusion of 3 ug/kg/min in canine model. The test is classed as functional, Canis lupus familiaris.
The subject of test [10] is Canis familiaris. In words: Effect on mean arterial pressure was determined at an iv dose of 10 ug/kg/60 min in a canine model. The test is classed as functional, Canis lupus familiaris, Artery.
Test [11] concerns Canis familiaris. Description: Effect on mean arterial pressure was determined at an iv dose of 100 ug/kg plus a constant infusion of 10 ug/kg/min in canine model. The test is classed as functional, Canis lupus familiaris, Artery.
The subject of test [12] is Canis familiaris. In words: Effect on Cyclical Flow Reductions induced by intracoronary platelet aggregation in stenosed canine coronary arteries at an iv dose of 100 ug/kg plus a constant infusion of 10 ug/kg/min in canine model. It is filed as functional, Canis lupus familiaris.
Test [13] concerns Canis familiaris. In words: Effect on Cyclical Flow Reductions induced by intracoronary platelet aggregation in stenosed canine coronary arteries at an iv dose of 3 ug/kg/60 min in canine model. It is filed as functional, Canis lupus familiaris.
The subject of test [14] is Canis familiaris. In words: Effect on mean arterial pressure was determined at an iv dose of 3 ug/kg/60 min in canine model. It is filed as functional, Canis lupus familiaris, Artery.
Test [15] is filed under the species Homo sapiens. In words: Effect on aggregation of thrombin-stimulated washed human platelets at a concentration of 0.3 uM. It is filed as functional.
For test [16], the species on record is Homo sapiens. Description: Effect on PGI2-stimulated cAMP in washed human platelets at a concentration of 0.3 uM +1 ng/mL of PGI2; pmol/5E8 platelets. It is filed as functional.
The species entered for test [17] is Homo sapiens. Description: Effect on cAMP levels in washed platelets at a concentration of 0.1 uM; pmol/5E8 platelets. The test is classed as functional. Background: Changes in cAMP serve as a functional read-out for many G protein-coupled receptors.
Test [18] relates to Canis familiaris. Description: Effect on heart rate was determined at an iv dose of 10 ug/kg plus a constant infusion of 1 ug/kg/min in a canine model. The test is classed as functional, Canis lupus familiaris.
The subject of test [19] is Canis familiaris. In words: Time interval between end of drug treatment and restoration of CFR pattern of blood flow at an iv dose of 10 ug/kg/60 min in a canine model. The test is classed as functional, Canis lupus familiaris.
In test [20] the test system is Canis familiaris. In words: Time interval between end of drug treatment and restoration of CFR pattern of blood flow at an iv dose of 100 ug/kg plus a constant infusion of 10 ug/kg/min in canine model. It is filed as functional, Canis lupus familiaris.
The species entered for test [21] is Homo sapiens. Description: Effect on cAMP levels in washed platelets at a concentration of 0.3 uM; pmol/5E8 platelets. It is filed as functional.
The species entered for test [22] is Homo sapiens. Description: Effect on aggregation of thrombin-stimulated washed human platelets at a concentration of 0.1 uM. It is filed as functional.
Test [23] concerns Canis familiaris. Description: Effect on Cyclical Flow Reductions induced by intracoronary platelet aggregation in stenosed canine coronary arteries at an iv dose of 30 ug/kg plus a constant infusion of 3 ug/kg/min in canine model. It is filed as functional, Canis lupus familiaris.
For test [24], the system named is Canis familiaris. Description: Time interval between start of drug treatment and first change in CFR pattern of blood flow at an iv dose of 30 ug/kg plus a constant infusion of 3 ug/kg/min. It is filed as functional, Canis lupus familiaris.
Test [25] concerns Canis familiaris. Description: Time interval between start of drug treatment and first change in CFR pattern of blood flow at an iv dose of 10 ug/kg/60 min in a canine model. The test is classed as functional, Canis lupus familiaris.
Test [26] relates to Canis familiaris. Description: Effect on Cyclical Flow Reductions induced by intracoronary platelet aggregation in stenosed canine coronary arteries at an iv dose of 10 ug/kg/60 min in a canine model. It is filed as functional, Canis lupus familiaris.
Test [27] has as its system Canis familiaris. In words: Effect on heart rate was determined at an iv dose of 30 ug/kg plus a constant infusion of 3 ug/kg/min in a canine model. The test is classed as functional, Canis lupus familiaris.
Test [28] deals with Canis familiaris. Description: Effect on mean arterial pressure was determined at an iv dose of 10 ug/kg plus a constant infusion of 1 ug/kg/min in canine model. It is filed as functional, Canis lupus familiaris, Artery.
Test [29] concerns Canis familiaris. Description: Effect on heart rate was determined at an iv dose of 100 ug/kg plus a constant infusion of 10 ug/kg/min in a canine model. The test is classed as functional, Canis lupus familiaris.
For test [30], the system named is Canis familiaris. Description: Effect on heart rate was determined at an iv dose of 10 ug/kg/60 min in a canine model. The test is classed as functional, Canis lupus familiaris.
Test [31] relates to Canis familiaris. In words: Time interval between end of drug treatment and restoration of CFR pattern of blood flow at an iv dose of 3 ug/kg/60 min in canine model. The test is classed as functional, Canis lupus familiaris.

Seven molecules from ChEMBL document CHEMBL1128014, “Synthesis and biological activity of a potent antiplatelet 7-aminofurochromone” (Bioorg Med Chem Lett, 1994) can be followed below.

`Cc1c2oc(CN3CCN(C)CC3)cc2cc2c(=O)cc(N3CCOCC3)oc12` yielded a half-maximal inhibitory concentration (IC50) in the test filed under Homo sapiens [1] of 9.1 µM. Also, the Relative potency in the test listed under Homo sapiens [2] is 0.9.

The molecule `Cc1c2c(cc3c(=O)cc(N4CCOCC4)oc13)CC(CN1CCN(C)CC1)O2` (stereo not given) showed an IC50 in the test filed under Homo sapiens [1] of 5.6 µM. In the test filed under Homo sapiens [2], this molecule returned a Relative potency of 0.5.

In the test listed under Homo sapiens [1], `Cc1c(OCCN2CCN(C)CC2)ccc2c(=O)cc(N3CCOCC3)oc12` returned an IC50 of 8.6 µM. Besides, the Relative potency in the test filed under Homo sapiens [2] worked out at 1.

As to `Cc1c2oc(CN3CCSCC3)cc2cc2c(=O)cc(N3CCOCC3)oc12`, the Heart rate in the test with Canis familiaris [3] was 104%; in the test with Canis familiaris [18], 106%; in the test with Canis familiaris [27], 112%; with Canis familiaris [29] it was 116%; with Canis familiaris [30], 116%. In addition, the CFR rating in the test with Canis familiaris [4] was 1; with Canis familiaris [12] it was 3; in the test on Canis familiaris [13], 3; in the test with Canis familiaris [23] it was 2; with Canis familiaris [26], 3. Also, the “Mean arterial blood pressure” value in the test with Canis familiaris [5] amounted to 88%; in the test with Canis familiaris [10], 86%; in the test with Canis familiaris [11], 74%; in the test on Canis familiaris [14] it was 93%; with Canis familiaris [28] it was 99%. In addition, the Onset time in the test on Canis familiaris [6] turned out to be 1 min; in the test on Canis familiaris [24], 1 min; in the test with Canis familiaris [25], 8 min. Moreover, the Offset time in the test with Canis familiaris [7] was 3 min; in the test on Canis familiaris [9], 34 min; in the test on Canis familiaris [19], 36 min; in the test on Canis familiaris [20] it was greater than 60 min; in the test on Canis familiaris [31] it was 27 min. The Activity in the test filed under Homo sapiens [8] was 25.7; in the test filed under Homo sapiens [16], 163.1; in the test filed under Homo sapiens [17], 13.2; in the test filed under Homo sapiens [21], 36.1; in the test listed under Homo sapiens [22], 25.7. In addition, the figures for the Aggregation in the test listed under Homo sapiens [8], in the test listed under Homo sapiens [15] and in the test filed under Homo sapiens [22] were 0%, 0% and 14%, respectively. Moreover, 0.35 µM corresponded to half-maximal inhibition in the test filed under Homo sapiens [1] (IC50). The molecule further displayed a Relative potency in the test listed under Homo sapiens [2] of 4.5.

As for `Cc1c2c(cc3c(=O)cc(N4CCOCC4)oc13)CC(CN1CCSCC1)O2` (stereo not given), the half-inhibitory concentration (IC50) in the test listed under Homo sapiens [1] is 3.6 µM. In the test listed under Homo sapiens [2], this molecule gave a Relative potency of 2.4.

`Cc1c2c(cc3c(=O)cc(N4CCOCC4)oc13)CC(CN1CCCCC1)O2` (stereo not given): in the test listed under Homo sapiens [1], inhibition was half-maximal at 6.2 µM (IC50). Also, the Relative potency in the test filed under Homo sapiens [2] stood at 0.5.

The molecule `Cc1c2oc(CN3CCCC3)cc2cc2c(=O)cc(N3CCOCC3)oc12` showed an IC50 in the test listed under Homo sapiens [1] of 15.4 µM. In the test filed under Homo sapiens [2], this molecule yielded a Relative potency of 0.5.

The term IC50 denotes the concentration at which inhibition is half-maximal. Low values mean greater potency in that assay, high ones weaker potency in that assay.
